The source of these data is paper PMC7279002, “Novel 3′-Substituted-1′,2′,4′-Oxadiazole Derivatives of 18βH-Glycyrrhetinic Acid and Their O-Acylated Amidoximes: Synthesis and Evaluation of Antitumor and Anti-Inflammatory Potential In Vitro and In Vivo” (International Journal of Molecular Sciences, 2020).

Data set [1] relates to human cervical carcinoma HeLa. Nature of the data set: MTT cytotoxicity assay, 48 h. The format is cell-based. Conditions: Homo sapiens, HeLa; MTT, 48 h; read-out: IC50, µM Cervix HeLa. The procedure:
(§1) On the first step of the biological evaluation of novel GA derivatives 3a-h, 4a-h, and 5a-h, we analyzed their cytotoxicity in a panel of cultured mammalian cells, including human cervical carcinoma HeLa and KB-3-1, human duodenal carcinoma HuTu-80, human lung adenocarcinoma A549, murine melanoma B16 cell lines, and nontransformed human fibroblasts hFF3. The cells were treated with derivatives for 48 h and cell viability was evaluated by 3-(4, 5-dimethylthiazol-2-yl)-2, 5-diphenyltetrazolium bromide (MTT) assay. Since the studied compounds contain two types of functional groups at position 3-acetoxy- or the hydroxyl-group, 3-acetoxy-GA 1 and GA-Me were used as references. Additionally, hierarchical clustering of cytotoxic data was carried out in order to reveal groups of compounds with similar cytotoxic profiles (Figure 2A).
(§2) Human cervical carcinoma HeLa and KB-3-1 cells, human duodenal carcinoma HuTu-80 cells, and human lung adenocarcinoma A549 cells were obtained from the Russian Culture Collection (Institute of Cytology, RAS, St. Petersburg, Russia). Melanoma B16-F10 (hereafter, melanoma B16) cells were obtained from the Cell Culture Bank of the Blokhin National Medical Oncology Research Center (Moscow, Russia). Nonmalignant fibroblasts hFF3 and RAW264.7 macrophages were kindly provided by Dr. Olga A. Koval (Institute of Chemical Biology and Fundamental Medicine, SB RAS, Novosibirsk, Russia) and Prof. Dmitry Kuprash (Engelhardt Institute of Molecular Biology, RAS, Moscow, Russia), respectively. The cells were cultured in DMEM (Sigma-Aldrich Inc., St. Louis, MO, USA) supplemented with 10% (v/v) heat-inactivated fetal bovine serum (FBS) (BioloT, St. Petersburg, Russia) and antibiotic–antimycotic solution (100 U/mL penicillin, 100 µg/mL streptomycin, 0.25 µg/mL amphotericin). […] The cells were incubated at 37 °C in a humidified 5% CO2-containing air atmosphere (hereafter referred to as standard conditions). GA derivatives were dissolved in DMSO (stock solutions: 10 mM) and stored at −20 °C prior to use.
(§3) Cells were seeded in tetra- or pentaplicates in 96-well plates at a density of 10^4 (tumor cells and […] fibroblasts) or 10^5 (RAW264.7 cells) cells per well. Cells were incubated under standard conditions for 24 h, followed by their treatment with the investigated derivatives (0.5–50 µM) or corresponding concentrations of DMSO (control) for a further 48 h (tumor cells and fibroblasts) or 24 h (RAW264.7 cells). At the end of incubation period, 10 µL of MTT solution was added to the cells (final concentration: 0.5 mg/mL) and plates were incubated for an additional 2 h under standard conditions. Then, the MTT-containing medium was aspirated and formazan crystals formed in living cells were solubilized with 100 µL of DMSO. The absorbance of each well was read at test and reference wavelengths of 570 and 620 nm, respectively, on a Multiscan RC plate reader (Thermo LabSystems, Helsinki, Finland). The IC50 values (the concentration of compounds leading to a decrease of A570 to 50% of A570^control) were calculated by extrapolation of the dose–response curves. […] A heatmap of SI values was constructed by Microsoft Excel 2010.

The subject of data set [2] is human cervical carcinoma KB-3-1. Nature of the data set: MTT cytotoxicity assay, 48 h. The format is cell-based. The note with it: Homo sapiens, KB 3-1; MTT, 48 h; read-out: IC50, µM Cervix KB-3-1. The procedure:
as §1, §2, §3

Data set [3] deals with human duodenal carcinoma HuTu-80. The experiment in a line: MTT cytotoxicity assay, 48 h. The format is cell-based. The note with it: Homo sapiens, HuTu80; MTT, 48 h; read-out: IC50, µM Duodenum HuTu-80. The procedure: as §1, §2, §3
Data set [4] has as its system human lung adenocarcinoma A549. The experiment in a line: MTT cytotoxicity assay, 48 h. Format: cell-based. Conditions: Homo sapiens, A549; MTT, 48 h. The method, then: as §1, §2, §3
Another data set deals with murine melanoma B16. The experiment in a line: MTT cytotoxicity assay, 48 h. The format is cell-based. The note with it: Mus musculus; MTT, 48 h. The method, then:
as §1, §2, §3

Data set [5] concerns nontransformed human fibroblasts hFF3. Nature of the data set: MTT cytotoxicity assay, 48 h. Conditions: Homo sapiens, HFF-3, read-out: IC50, µM Fibroblast hFF3. Format: cell-based. The procedure: as §1, §2, §3
Data set [6] concerns HeLa, KB-3-1, HuTu-80, A549, B16 and hFF3 cells. The experiment in a line: MTT cytotoxicity, summary over the panel of cell lines. The format is cell-based. The procedure: as §1, §3
Data set [7] relates to murine RAW264.7 macrophages. The experiment in a line: MTT cytotoxicity assay, 24 h. Format: cell-based. Conditions: up to 50 µM. The method, then:
as §3

Data set [8] concerns TNFα production by IFN-γ-stimulated RAW264.7 cells. The experiment in a line: TNF-α production by IFNγ-stimulated macrophages (ELISA). Format: cell-based, murine. The note with it: 10–50 µM, 24 h, IFNγ (20 ng/mL). The procedure:
(§4) RAW264.7 cells were seeded in tetraplicates in 96-well plates at a density of 10^5 cells/well and incubated under standard conditions for 24 h. The cells were treated with murine IFNγ (20 ng/mL) (Gibco, Grand Island, NY, USA) with or without (control) 3d (10–50 µM) for a further 24 h. At the end of the incubation period, the levels of TNF-α and NO in culture medium were measured using murine TNF alpha ELISA (Thermo Scientific, Frederick, MD, USA) and the Griess reagent system (Promega, Madison, WI, USA), respectively, according to manufacturers’ instructions.

The test system of data set [9] is NO synthesis by IFN-γ-induced RAW264.7 cells. Nature of the data set: NO production by IFNγ-stimulated macrophages (Griess). Format: cell-based, murine. The note with it: 10–50 µM, 24 h, IFNγ (20 ng/mL). The procedure:
as §4

Data set [10] relates to carrageenan-induced paw edema. The experiment in a line: Carrageenan-induced paw edema. Conditions: for decrease of the weight of edema compared with vehicle-treated mice: gastric gavage 1 h before carrageenan, 5 h after induction, 3d 50 mg/kg, indomethacin 20 mg/kg. The format is in vivo, ICR mice. The procedure:
To induce paw edema, ICR mice were injected with 1% carrageenan (50 μL) on the plantar side of the right hind paw. […] Mice were sacrificed 5 h after induction of paw edema. The percent of edema weight in carrageenan-injected compound-treated groups in comparison to that in vehicle-treated control group was calculated according to the formula: % Edema=(M1−M2/M2)^compound/∑n(M1−M2/M2)^vehicle×n×100%, where M1 is the weight of the paw with carrageenan-induced edema; M2 is the weight of the intact paws; compound and vehicle correspond to the compound- and vehicle-treated phlogogen-injected mice, respectively; and n is the number of mice in the control group (n = 9). Furthermore, paw material was collected for subsequent histological analysis.
For histological analysis, the specimens of intact and edema paws from each animal were dehydrated in ascending ethanol and xylol and embedded in HistoMix paraffin (BioVitrum, Russia). Paraffin sections (5 μm) were sliced on a Microm HM 355S microtome (Thermo Fisher Scientific, Waltham, MA, USA) and stained with hematoxylin and eosin. Images were obtained using an Axiostar Plus microscope equipped with an Axiocam MRc5 digital camera (Zeiss, Oberkochen, Germany) at ×100 and ×400 magnifications.

The subject of data set [11] is carrageenan-induced peritonitis. Nature of the data set: Carrageenan-induced peritonitis. Format: in vivo, ICR mice. Conditions: i.p. 1 h before carrageenan, 4 h; for decrease of the total leukocyte number in peritoneal exudates: 3d 50 mg/kg, dexamethasone 1 mg/kg. The procedure: To study the effect of 3d on carrageenan-induced peritonitis, ICR mice were injected with 1% carrageenan (250 μL) intraperitoneally (i.p.). Compound 3d (50 mg/kg), vehicle (10% Tween-80), dexamethasone (1 mg/kg) as a reference anti-inflammatory drug, and saline buffer were administered i.p. 1 h before peritonitis induction. The healthy uninflamed group (control) was injected i.p. by saline. Mice were sacrificed 4 h after carrageenan injection and their peritoneal cavities were washed with 2 mL of heparinized cold saline buffer to obtain peritoneal cells. The peritoneal exudates were collected and the total leukocyte counts were performed with a Neubauer chamber by optical microscopy after diluting the peritoneal fluid with Turk solution (1:20). To determine the differential leukocyte counts (total 100 cells), peritoneal cells were centrifuged and placed onto slides, stained with azur–eosin by Romanovsky–Giemsa and examined by optical microscopy. The results were expressed as the number of total leukocytes (×10^5 cells/mL) and the percentages of subpopulations of neutrophils, lymphocytes, and monocytes.

Each structure is given as a SMILES string. Read-outs that look alike come from different tables or passages of the source.

`CC(=O)O[C@H]1CC[C@@]2(C)C(CC[C@]3(C)C2C(=O)C=C2[C@@H]4C[C@@](C)(C(=O)O/N=C(/N)C(C)(C)C)CC[C@]4(C)CC[C@]23C)C1(C)C` (some centres unmarked) [Compound 3d] displayed a melting point of 151.6 to 152.3 °C. Also, the IC50 in data set [1] is greater than 50 µM. Besides, the half-inhibitory concentration (IC50) in data set [2] was greater than 50 µM. Moreover, the half-inhibitory concentration (IC50) in data set [3] was greater than 50 µM. The molecule also displayed a half-maximal inhibitory concentration (IC50) in data set [4] greater than 50 µM. For the same molecule, the IC50 in the data set on murine melanoma B16 was greater than 50 µM. Besides, the IC50 in data set [5] is greater than 50 µM. The “cytotoxicity in all tested cell lines” value in [6] (all tested cell lines) is recorded as “nontoxic”. Also, in [6] (median over all tested cell lines, read-out: median IC50), the concentration for half-maximal inhibition (IC50) is greater than 50 µM. The half-inhibitory concentration (IC50) in data set [6] (read-out: IC50 values with respect to all tested cell lines) was greater than 50 µM. The “cytotoxicity to RAW264.7 macrophages” value in [7] is “did not reveal cytotoxicity”. In [8], the “suppression of TNFα production compared to the IFN-γ-stimulated control” value is listed as 2.2–9.0 times. In data set [9], the “inhibition of NO synthesis compared with the control” value is reported as “up to 5.3 times”. For the same molecule, the histology of footpads entry in data set [10] (50 mg/kg, gastric gavage) is “substantially reducing leukocyte infiltration in the dermis of the footpads”. The “decrease of the weight of edema compared with vehicle-treated mice” value in data set [10] came to 1.7 fold. In addition, in [11], the “distribution of leukocyte subpopulations in peritoneal fluid” value was “restore leukocyte subtype content to a healthy level” and the “decrease of the total leukocyte number in peritoneal exudates” value was 2.7 fold.

On to `C[C@@H]1C[C@H]2[C@@H]3CCC4=CC(=O)C=C[C@]4(C)[C@@]3(F)[C@@H](O)C[C@]2(C)[C@@]1(O)C(=O)CO` [dexamethasone, reference compound], for which, in [11], the “distribution of leukocyte subpopulations in peritoneal fluid” value is given as “did not affect the distribution of the leukocyte subpopulation” and the “decrease of the total leukocyte number in peritoneal exudates” value is reported as 1.8 fold.

On to `COc1ccc2c(c1)c(CC(=O)O)c(C)n2C(=O)c1ccc(Cl)cc1` [indomethacin, reference compound], for which the “decrease of the weight of edema compared with vehicle-treated mice” value in data set [10] was “three-fold”.
